Experimental findings from patent US20230322723A1, “COMPOUNDS FOR SUPPRESSING EGFR MUTANT CANCER AND PHARMACEUTICAL USE THEREOF” (J2H BIOTECH INC., priority 2020, published 2023) are described below.

Data set [1] can be described thus: Pharmacokinetic evaluation after single oral administration to ICR mice. As to conditions: mouse, ICR mice, single oral dose 5 mg/kg, plasma; for AUC(0-t): read-out: AUC0-24. Format: in vivo. On the procedure: Pharmacokinetic tests for the compounds of the present invention were conducted as below. After a single oral administration of the compound of the present invention to ICR mice, the concentration of the compound over time was followed up and analyzed.
The compound of the present invention was suspended in 10% DMSO/90% (30% HPbCD aqueous solution) and orally administered to mice at a dose of 5 mg/kg. Blood was collected at a fixed time and plasma was separated. Drug analysis was performed using HPLC (XBridge column C18, Waters, mobile phase 0.1% formic acid:acetonitrile (30:70, %/%)) and MS/MS (ESI positive, MRM). Mouse blood plasma and each commercially available standard solution were mixed at a ratio of 9:1 to prepare and calibrate at concentrations of […] 5,000 ng/mL. In addition, the preparation of QC samples was prepared by mixing the mouse blood plasma and the standard solution for QC at a ratio of 9:1, and prepared to be concentrations of 100, 750 and 2,500 ng/mL. 100 μL of the plasma sample was transferred to a centrifugation tube, and 10 μL of the internal standard solution and 300 μL of methanol were added, followed by mixing for about 30 seconds for pretreatment. The tube was centrifuged at 3,000×g (4° C.) for about 5 minutes, and the supernatant was taken and transferred to an LC vial and injected into the instrument. Then, the concentration of the compound in mouse plasma was quantified by applying a previously validated assay. For pharmacokinetic parameters, the program WinNonlin 5.2 (Pharsight, USA) was used. AUC0-t, AUC0-∞, Cmax, Tmax, and t1/2 were calculated by Noncompartment modeling (best fit). The pharmacokinetic parameter results were expressed as the mean (Mean) and standard deviation (SD), and were statistically processed using the SPSS program (Statistical Package for the Social Sciences, 10.0K, USA).

The test system of the next data set is EGFR^del19+T790M+C797S. Briefly: EGFR protein degradation test (Western blot) in Ba/F3 cells expressing mutant EGFR del19+T790M+C797S (DTC). Format: cell-based. The following applies: compounds at 0.1 μM and 1 μM, 24 hours, Western blot with EGFR antibody. The method, boiled down:
(§1)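 Ba/F3 cells expressing wild-type EGFR, del19+T790M+C797S or L858R+T790M+C797S EGFR were treated with compound at 0.1 μM and 1 μM for 24 h. Lysates (30 μg) were analysed by SDS-PAGE and EGFR Western blot, with bands quantified densitometrically.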

The next data set addresses T1, EGFR^L858R+T790M+C797S (Homo sapiens, UniProt P00533, C797S/L858R/T790M).
T1 construct: expressed in transfected cells; host or cells: Ba/F3
Nature of the data set: EGFR protein degradation test (Western blot) in Ba/F3 cells expressing mutant EGFR L858R+T790M+C797S (LTC). Format: cell-based. As to conditions: compounds at 0.1 μM and 1 μM, 24 hours, Western blot with EGFR antibody. In outline:
as §1
(In general: A western blot detects proteins with antibodies after separation by electrophoresis.)

Each structure is given as a SMILES string.

T1 sequence (P00533 25-1210 T790M/C797S/L858R): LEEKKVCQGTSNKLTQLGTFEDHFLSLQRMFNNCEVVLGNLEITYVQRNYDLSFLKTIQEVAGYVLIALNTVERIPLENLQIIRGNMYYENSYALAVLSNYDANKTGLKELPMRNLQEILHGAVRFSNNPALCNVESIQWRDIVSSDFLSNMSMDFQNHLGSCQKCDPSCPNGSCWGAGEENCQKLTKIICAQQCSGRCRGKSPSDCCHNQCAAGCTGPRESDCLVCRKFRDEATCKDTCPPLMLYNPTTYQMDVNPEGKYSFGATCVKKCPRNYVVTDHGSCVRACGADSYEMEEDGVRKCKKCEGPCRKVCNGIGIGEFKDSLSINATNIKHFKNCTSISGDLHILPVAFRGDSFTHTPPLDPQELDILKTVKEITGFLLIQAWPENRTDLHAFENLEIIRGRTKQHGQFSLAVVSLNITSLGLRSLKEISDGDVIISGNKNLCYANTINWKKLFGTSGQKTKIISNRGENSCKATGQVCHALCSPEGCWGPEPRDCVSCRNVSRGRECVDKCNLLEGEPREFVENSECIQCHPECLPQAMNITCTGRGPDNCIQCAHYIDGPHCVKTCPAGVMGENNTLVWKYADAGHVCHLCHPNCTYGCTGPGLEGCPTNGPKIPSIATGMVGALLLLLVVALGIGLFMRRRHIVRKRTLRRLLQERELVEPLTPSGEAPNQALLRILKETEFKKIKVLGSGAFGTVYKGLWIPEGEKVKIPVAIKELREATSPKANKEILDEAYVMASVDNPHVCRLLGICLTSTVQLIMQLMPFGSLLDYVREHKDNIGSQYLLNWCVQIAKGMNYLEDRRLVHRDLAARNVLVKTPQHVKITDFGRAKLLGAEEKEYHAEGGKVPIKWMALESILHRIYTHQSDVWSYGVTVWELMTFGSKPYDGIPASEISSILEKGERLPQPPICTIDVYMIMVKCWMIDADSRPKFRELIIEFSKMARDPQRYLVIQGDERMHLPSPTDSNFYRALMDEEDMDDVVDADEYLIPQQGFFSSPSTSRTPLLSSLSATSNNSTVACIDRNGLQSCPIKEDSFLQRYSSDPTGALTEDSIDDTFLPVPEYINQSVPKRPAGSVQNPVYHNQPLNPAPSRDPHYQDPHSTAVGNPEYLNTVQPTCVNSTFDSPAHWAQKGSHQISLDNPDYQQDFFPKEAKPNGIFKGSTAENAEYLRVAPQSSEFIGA

By half-life is commonly meant the time needed for the level to fall by half in the phase considered. A lower half-life goes with rapid decline. Take `COc1cc(N2CCC(CN3CCN(CC(=O)N[C@H](C(=O)N4C[C@H](O)CC4C(=O)NCc4ccc(-c5scnc5C)cc4)C(C)(C)C)CC3)CC2)ccc1Nc1ncc(Cl)c(Nc2ccccc2N(C)S(C)(=O)=O)n1` (stereo in doubt) [Compound 27, (2R,4R)-1-((S)-2-(2-(4-((1-(4-((5-chloro-4-((2-(N-methylmethylsulfonamido)phenyl)amino)pyrimidin-2-yl)amino)-3-methoxyphenyl)piperidin-4-yl)methyl)piperazin-1-yl)acetamido)-3,3-dimethylbutanoyl)-4-hydroxy-N-(4-(4-methylthiazol-5-yl)benzyl)pyrrolidin-2-carboxamide]: in data set [1], the half-life is 8.89 h and the AUC(0-t) was 68 ng·h/mL. Besides, in the data set with EGFR^del19+T790M+C797S, the “DTC (EGFR^del19+T790M+C797S) protein degradation” value (“DTC” for short) is listed as “++ (Protein degradation > 80%)”. On EGFR^L858R+T790M+C797S, the “LTC (EGFR^L858R+T790M+C797S) protein degradation” value (from here on “LTC”) is “++ (Protein degradation > 80%)”.

Consider `COc1cc(N2CCN(CC3CCN(CC(=O)N[C@H](C(=O)N4C[C@H](O)CC4C(=O)NCc4ccc(-c5scnc5C)cc4)C(C)(C)C)CC3)CC2)ccc1Nc1ncc(Cl)c(Nc2ccccc2N(C)S(C)(=O)=O)n1` (stereo in doubt) [Compound 28, (2R,4R)-1-((S)-2-(2-(4-((4-(4-((5-chloro-4-((2-(N-methylmethylsulfonamido)phenyl)amino)pyrimidin-2-yl)amino)-3-methoxyphenyl)piperazin-1-yl)methyl)piperidin-1-yl)acetamido)-3,3-dimethylbutanoyl)-4-hydroxy-N-(4-(4-methylthiazol-5-yl)benzyl)pyrrolidin-2-carboxamide], for which, in data set [1], the half-life was 6.23 h and the AUC(0-t) came to 1170 ng·h/mL. The “DTC” value in the data set with EGFR^del19+T790M+C797S was “++ (Protein degradation > 80%)”. The “LTC” value on EGFR^L858R+T790M+C797S is “++ (Protein degradation > 80%)”.

Regarding `COc1cc(N2CCC(N3CCN(CC(=O)N[C@H](C(=O)N4C[C@H](O)C[C@@H]4C(=O)NCc4ccc(-c5scnc5C)cc4)C(C)(C)C)CC3)CC2)ccc1Nc1ncc(Cl)c(Nc2ccccc2N(C)S(C)(=O)=O)n1` [Compound 11, (2R,4R)-1-((S)-2-(2-(4-(1-(4-((5-chloro-4-((2-(N-methylmethylsulfonamido)phenyl)amino)pyrimidin-2-yl)amino)-3-methoxyphenyl)piperidin-4-yl)piperazin-1-yl)acetamido)-3,3-dimethylbutanoyl)-4-hydroxy-N-(4-(4-methylthiazol-5-yl)benzyl)pyrrolidin-2-carboxamide], in data set [1], the half-life is 6.54 h and the AUC(0-t) was found to be 553 ng·h/mL. The “DTC” value in the data set with EGFR^del19+T790M+C797S was “++ (Protein degradation > 80%)”. For the same molecule, on EGFR^L858R+T790M+C797S, the “LTC” value was “++ (Protein degradation > 80%)”.

`COc1cc(N2CCC(N3CCN(CCC(=O)N[C@H](C(=O)N4C[C@H](O)C[C@@H]4C(=O)NCc4ccc(-c5scnc5C)cc4)C(C)(C)C)CC3)CC2)ccc1Nc1ncc(Cl)c(Nc2ccccc2N(C)S(C)(=O)=O)n1` [Compound 20, (2R,4R)-1-((S)-2-(3-(4-(1-(4-((5-chloro-4-((2-(N-methylmethylsulfonamido)phenyl)amino)pyrimidin-2-yl)amino)-3-methoxyphenyl)piperidin-4-yl)piperazin-1-yl)propanamido)-3,3-dimethylbutanoyl)-4-hydroxy-N-(4-(4-methylthiazol-5-yl)benzyl)pyrrolidin-2-carboxamide]: in data set [1], the half-life was 8.99 h and the AUC(0-t) amounted to 42 ng·h/mL. Further, the “DTC” value with EGFR^del19+T790M+C797S is on record as “++ (Protein degradation > 80%)”. Besides, the “LTC” value on EGFR^L858R+T790M+C797S was “++ (Protein degradation > 80%)”.

Take `COc1cc(N2CCC(N3CCN(CC(=O)Nc4cccc5c4CN(C4CCC(=O)NC4=O)C5=O)CC3)CC2)ccc1Nc1ncc(Cl)c(Nc2ccccc2N(C)S(C)(=O)=O)n1` (stereo not drawn) [Compound 22, 2-(4-(1-(4-((5-chloro-4-((2-(N-methylmethylsulfonamido)phenyl)amino)pyrimidin-2-yl)amino)-3-methoxyphenyl)piperidin-4-yl)piperazin-1-yl)-N-(2-(2,6-dioxopiperidin-3-yl)-1-oxoisoindolin-4-yl)acetamide]: in data set [1], the half-life was 12.4 h and the AUC(0-t) amounted to 47 ng·h/mL. Moreover, in the data set with EGFR^del19+T790M+C797S, the “DTC” value is given as “++ (Protein degradation > 80%)”. Further, at EGFR^L858R+T790M+C797S, the “LTC” value is reported as “++ (Protein degradation > 80%)”.

`COc1cc(N2CCC(CN3CCN(CC(=O)Nc4cccc5c4CN(C4CCC(=O)NC4=O)C5=O)CC3)CC2)ccc1Nc1ncc(Cl)c(Nc2ccccc2N(C)S(C)(=O)=O)n1` (stereo not drawn) [Compound 24, 2-(4-((1-(4-((5-chloro-4-((2-(N-methylmethylsulfonamido)phenyl)amino)pyrimidin-2-yl)amino)-3-methoxyphenyl)piperidin-4-yl)methyl)piperazin-1-yl)-N-(2-(2,6-dioxopiperidin-3-yl)-1-oxoisoindolin-4-yl)acetamide]: in data set [1], the half-life is 12.4 h and the AUC(0-t) worked out at 17 ng·h/mL. Also, the “DTC” value in the data set on EGFR^del19+T790M+C797S was “++ (Protein degradation > 80%)”. For the same molecule, the “LTC” value at EGFR^L858R+T790M+C797S is recorded as “++ (Protein degradation > 80%)”.

Consider `COc1cc(N2CCN(CC3CCN(CC(=O)Nc4cccc5c4CN(C4CCC(=O)NC4=O)C5=O)CC3)CC2)ccc1Nc1ncc(Cl)c(Nc2ccccc2N(C)S(C)(=O)=O)n1` (stereo not drawn) [Compound 26, 2-(4-((4-(4-((5-chloro-4-((2-(N-methylmethylsulfonamido)phenyl)amino)pyrimidin-2-yl)amino)-3-methoxyphenyl)piperazin-1-yl)methyl)piperidin-1-yl)-N-(2-(2,6-dioxopiperidin-3-yl)-1-oxoisoindolin-4-yl)acetamide], for which, in data set [1], the half-life is 9.29 h and the AUC(0-t) is 32 ng·h/mL. For the same molecule, the “DTC” value in the data set with EGFR^del19+T790M+C797S is “++ (Protein degradation > 80%)”. In addition, the “LTC” value on EGFR^L858R+T790M+C797S is recorded as “++ (Protein degradation > 80%)”.

On to `CN(c1ccccc1Nc1nc(Nc2ccc(N3CCN(CC4CCN(C(=O)COc5cccc6c5C(=O)N(C5CCC(=O)NC5=O)C6=O)CC4)CC3)c(F)c2)ncc1Cl)S(C)(=O)=O` (stereo not drawn) [Compound 43, N-(2-((5-chloro-2-((4-(4-((1-(2-((2-(2,6-dioxopiperidin-3-yl)-1,3-dioxoisoindolin-4-yl)oxy)acetyl)piperidin-4-yl)methyl)piperazin-1-yl)-3-fluorophenyl)amino)pyrimidin-4-yl)amino)phenyl)-N-methylmethanesulfonamide], for which, in data set [1], the half-life is 5.07 h and the AUC(0-t) was determined as 346 ng·h/mL. The “DTC” value in the data set with EGFR^del19+T790M+C797S is “++ (Protein degradation > 80%)”. Further, the “LTC” value at EGFR^L858R+T790M+C797S is on record as “++ (Protein degradation > 80%)”.

As to `COc1cc(N2CCC(N3CCN(CCNc4cccc5c4C(=O)N(C4CCC(=O)NC4=O)C5=O)CC3)CC2)ccc1Nc1ncc(Cl)c(Nc2ccccc2N(C)S(C)(=O)=O)n1` (stereo not drawn) [Compound 45, N-(2-((5-chloro-2-((4-(4-(4-(2-((2-(2,6-dioxopiperidin-3-yl)-1,3-dioxoisoindolin-4-yl)amino)ethyl)piperazin-1-yl)piperidin-1-yl)-2-methoxyphenyl)amino)pyrimidin-4-yl)amino)phenyl)-N-methylmethanesulfonamide], in data set [1], the half-life is 3.45 h and the AUC(0-t) worked out at 992 ng·h/mL. In addition, the “DTC” value in the data set with EGFR^del19+T790M+C797S is “++ (Protein degradation > 80%)”. The “LTC” value on EGFR^L858R+T790M+C797S is “++ (Protein degradation > 80%)”.
